# Reference: the supplement of paper PMC10307832
# Assays:
# Experiment in all cases: relative viability (nuclei count vs DMSO), 5 days (fraction); higher = more cells survive
# [1] = tested on: NCI-H661
# Outline: (§1)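 Lung cancer cell lines in 1536-well plates were dosed by pin tool the day after seeding, either with one drug alone or with a fixed anchor-drug dose plus five library-drug doses (not always all listed) in √10 steps. After 5 days, cells were fixed and their nuclei stained in one step (final 0.05% Triton X-100, 1% formaldehyde, 1 ug/ml Hoechst), then counted on 4× images. Relative viability is the nuclei count in treated wells divided by that in vehicle wells. Values are medians of duplicate plates.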
# [2] = tested on: BEN
# Outline: as §1
# [3] = tested on: HCC-78
# Outline: as §1
# [4] = tested on: SK-MES-1
# Outline: as §1
# [5] = tested on: NCI-H1734
# Outline: as §1
# [6] = tested on: A-427
# Outline: as §1
# [7] = tested on: NCI-H3122
# Outline: as §1
# [8] = tested on: NCI-H650
# Outline: as §1
# [9] = tested on: NCI-H1395
# Outline: as §1
# [10] = tested on: HOP-62
# Outline: as §1
# [11] = tested on: LC-2-ad
# Outline: as §1
# [12] = tested on: NCI-H2087
# Outline: as §1
# [13] = tested on: NCI-H2023
# Outline: as §1
# [14] = tested on: LOU-NH91
# Outline: as §1
# [15] = tested on: COR-L 105
# Outline: as §1
# [16] = tested on: LXF-289
# Outline: as §1
# [17] = tested on: EKVX
# Outline: as §1
# [18] = tested on: NCI-H596
# Outline: as §1
# [19] = tested on: HARA
# Outline: as §1
# [20] = tested on: NCI-H358
# Outline: as §1
# [21] = tested on: HCC-44
# Outline: as §1
smiles,measurement,setting,value
COCC1(CO)C(=O)C2CCN1CC2 (centres undefined) [PRIMA-1MET] + C[C@]1(O)C[C@@H](c2nc(-c3ccc4ccc(-c5ccccc5)nc4c3)c3c(N)nccn32)C1 [Linsitinib] (partner 1 µM),relative viability,[1]; first compound 0.2 µM,0.561
same,relative viability,[1]; first compound 0.6325 µM,0.507
same,relative viability,[1]; first compound 6.325 µM,0.532
same,relative viability,[1]; first compound 20 µM,0.283
same,relative viability,[2]; first compound 0.2 µM,1.04
same,relative viability,[2]; first compound 0.6325 µM,0.765
same,relative viability,[2]; first compound 6.325 µM,1.08
same,relative viability,[2]; first compound 20 µM,0.85
same,relative viability,[3]; first compound 0.2 µM,0.658
same,relative viability,[3]; first compound 0.6325 µM,0.556
same,relative viability,[3]; first compound 6.325 µM,0.498
same,relative viability,[3]; first compound 20 µM,0.0559
same,relative viability,[4]; first compound 0.2 µM,1.13
same,relative viability,[4]; first compound 0.6325 µM,1.04
same,relative viability,[4]; first compound 2 µM,1.02
same,relative viability,[4]; first compound 6.325 µM,1.05
same,relative viability,[4]; first compound 20 µM,1.11
same,relative viability,[5]; first compound 0.2 µM,0.972
same,relative viability,[5]; first compound 0.6325 µM,0.808
same,relative viability,[5]; first compound 2 µM,0.824
same,relative viability,[5]; first compound 6.325 µM,0.818
same,relative viability,[5]; first compound 20 µM,0.51
same,relative viability,[6]; first compound 0.2 µM,1.19
same,relative viability,[6]; first compound 0.6325 µM,0.703
same,relative viability,[6]; first compound 2 µM,0.953
same,relative viability,[6]; first compound 6.325 µM,1.12
same,relative viability,[6]; first compound 20 µM,1.08
same,relative viability,[7]; first compound 0.2 µM,0.853
same,relative viability,[7]; first compound 0.6325 µM,0.996
same,relative viability,[7]; first compound 2 µM,1.04
same,relative viability,[7]; first compound 6.325 µM,0.945
same,relative viability,[7]; first compound 20 µM,1.03
same,relative viability,[8]; first compound 0.2 µM,1.13
same,relative viability,[8]; first compound 2 µM,0.859
same,relative viability,[8]; first compound 6.325 µM,0.674
same,relative viability,[8]; first compound 20 µM,0.107
same,relative viability,[9]; first compound 0.2 µM,1.1
same,relative viability,[9]; first compound 0.6325 µM,0.909
same,relative viability,[9]; first compound 2 µM,0.958
same,relative viability,[9]; first compound 6.325 µM,1.61
same,relative viability,[9]; first compound 20 µM,0.859
same,relative viability,[10]; first compound 0.2 µM,1.08
same,relative viability,[10]; first compound 0.6325 µM,0.976
same,relative viability,[10]; first compound 2 µM,0.9
same,relative viability,[10]; first compound 6.325 µM,0.987
same,relative viability,[10]; first compound 20 µM,0.746
same,relative viability,[11]; first compound 0.2 µM,0.967
same,relative viability,[11]; first compound 0.6325 µM,0.843
same,relative viability,[11]; first compound 2 µM,0.754
same,relative viability,[11]; first compound 6.325 µM,0.858
same,relative viability,[11]; first compound 20 µM,0.598
same,relative viability,[12]; first compound 0.2 µM,1.07
same,relative viability,[12]; first compound 0.6325 µM,0.85
same,relative viability,[12]; first compound 2 µM,0.875
same,relative viability,[12]; first compound 6.325 µM,1.24
same,relative viability,[12]; first compound 20 µM,0.691
same,relative viability,[13]; first compound 0.2 µM,0.784
same,relative viability,[13]; first compound 0.6325 µM,0.65
same,relative viability,[13]; first compound 2 µM,0.7
same,relative viability,[13]; first compound 6.325 µM,0.668
same,relative viability,[13]; first compound 20 µM,0.609
same,relative viability,[14]; first compound 0.2 µM,1.02
same,relative viability,[14]; first compound 0.6325 µM,0.771
same,relative viability,[14]; first compound 2 µM,0.773
same,relative viability,[14]; first compound 6.325 µM,1.01
same,relative viability,[14]; first compound 20 µM,0.582
same,relative viability,[15]; first compound 0.2 µM,0.943
same,relative viability,[15]; first compound 0.6325 µM,0.815
same,relative viability,[15]; first compound 2 µM,0.823
same,relative viability,[15]; first compound 6.325 µM,0.859
same,relative viability,[15]; first compound 20 µM,0.168
same,relative viability,[16]; first compound 0.2 µM,1.02
same,relative viability,[16]; first compound 0.6325 µM,0.958
same,relative viability,[16]; first compound 2 µM,1.04
same,relative viability,[16]; first compound 6.325 µM,0.999
same,relative viability,[16]; first compound 20 µM,0.89
same,relative viability,[17]; first compound 0.2 µM,0.999
same,relative viability,[17]; first compound 0.6325 µM,0.912
same,relative viability,[17]; first compound 2 µM,0.707
same,relative viability,[17]; first compound 6.325 µM,1.03
same,relative viability,[17]; first compound 20 µM,0.804
same,relative viability,[18]; first compound 0.2 µM,1.29
same,relative viability,[18]; first compound 0.6325 µM,0.894
same,relative viability,[18]; first compound 2 µM,0.972
same,relative viability,[18]; first compound 6.325 µM,1.09
same,relative viability,[18]; first compound 20 µM,1.14
same,relative viability,[19]; first compound 0.2 µM,1.16
same,relative viability,[19]; first compound 0.6325 µM,0.265
same,relative viability,[19]; first compound 6.325 µM,0.903
same,relative viability,[19]; first compound 20 µM,0.874
same,relative viability,[20]; first compound 0.2 µM,0.97
same,relative viability,[20]; first compound 0.6325 µM,0.399
same,relative viability,[20]; first compound 6.325 µM,0.757
same,relative viability,[20]; first compound 20 µM,0.0326
same,relative viability,[21]; first compound 0.2 µM,0.746
same,relative viability,[21]; first compound 0.6325 µM,0.528
same,relative viability,[21]; first compound 2 µM,0.673
same,relative viability,[21]; first compound 6.325 µM,0.706
same,relative viability,[21]; first compound 20 µM,0.625
